From ChEMBL document CHEMBL5136985, “Natural and synthetic β-carboline as a privileged antifungal scaﬀolds” (Eur J Med Chem, 2022)
pEC50: −log10 of the molar value. In brackets after ≈: the same amount, converted by molar mass.

Tests used:
[1] = system: Colletotrichum gloeosporioides; test: Antifungal activity against Colletotrichum gloeosporioides; format: functional
[2] = system: Cytospora mali; test: Antifungal activity against Valsa mali; format: functional
[3] = system: Alternaria alternata; test: Antifungal activity against Alternaria alternata; format: functional
[4] = system: Alternaria brassicae; test: Antifungal activity against Alternaria brassicae; format: functional
[5] = system: Sclerotinia sclerotiorum; test: Antifungal activity against Sclerotinia sclerotiorum; format: functional, organism-based
[6] = system: Trichophyton interdigitale; test: Antifungal activity against Trichophyton interdigitale; format: functional
[7] = system: Alternaria solani; test: Antifungal activity against Alternaria solani relative to control; format: functional; design: concentration or dose not given beside the values
[8] = system: Bipolaris maydis; test: Antifungal activity against Bipolaris maydis relative to control; format: functional; design: concentration or dose not given beside the values
[9] = system: Fusarium solani; test: Antifungal activity against Fusarium solani; format: functional, organism-based
[10] = system: Aspergillus niger; test: Antifungal activity against Aspergillus niger assessed as inhibition of growth rate at 100 ug/ml by disc diffusion method relative to control; format: functional
[11] = system: Bipolaris oryzae; test: Antifungal activity against Helminthosporium oryzae assessed as inhibition of growth rate at 100 ug/ml by disc diffusion method relative to control; format: functional
[12] = system: Sclerotinia; test: Antifungal activity against rape Sclerotinia rot at 50 ug/ml relative to control; format: functional; settings: Sclerotinia
[13] = system: Gaeumannomyces graminis; test: Antifungal activity against Gaeumannomyces graminis; format: functional, organism-based
[14] = system: Sclerotinia; test: Antifungal activity against sunflower Sclerotinia rot at 50 ug/ml relative to control; format: functional; settings: dose 50 µg/ml
[15] = system: Curvularia lunata; test: Antifungal activity against Curvularia lunata; format: functional, organism-based
[16] = system: Fusarium solani; test: Antifungal activity against Fusarium solani incubated for 72 hrs; format: functional, organism-based; settings: for pEC50: Fusarium solani, 72 h
[17] = system: Candida albicans; test: Antifungal activity against Candida albicans incubated for 72 hrs; format: functional
[18] = system: Saccharomyces cerevisiae; test: Antifungal activity against Saccharomyces cerevisiae; format: functional
[19] = system: Phytophthora litchii; test: Antifungal activity against Phytophthora litchii assessed as inhibition of growth rate at 100 mg/L relative to control; format: functional
[20] = system: Candida albicans; test: Antifungal activity against Candida albicans incubated for 24 hrs by well diffusion method; format: functional
[21] = system: Metarhizium anisopliae; test: Antifungal activity against Metarhizium anisopliae assessed as reduction of growth rate relative to control; format: functional; design: scale not given: the % may be the effect or the level left
[22] = system: Rhizoctonia solani; test: Antifungal activity against Rhizoctonia solani; format: functional, organism-based

Compound: O=C1[C@@H]2Cc3c([nH]c4ccccc34)C(c3ccccc3)N2C(=O)[C@@H]2CCCN12 (stereo partly drawn)
- MIC [1]: 12.5 µg/mL (≈ 33.7 µM)
- MIC [2]: 12.5 µg/mL (≈ 33.7 µM)
- MIC [3]: 12.5 µg/mL (≈ 33.7 µM)
- MIC [4]: 12.5 µg/mL (≈ 33.7 µM)

Compound: CC(C)C1c2[nH]c3ccccc3c2C[C@H]2C(=O)N3CCC[C@H]3C(=O)N12 (stereo partly drawn)
- MIC [1]: 12.5 µg/mL (≈ 37 µM)
- MIC [2]: 12.5 µg/mL (≈ 37 µM)
- MIC [3]: 12.5 µg/mL (≈ 37 µM)
- MIC [4]: 12.5 µg/mL (≈ 37 µM)

Compound: O=C(O)c1cc2c([nH]c3ccccc32)c(-c2ccc(Br)cc2)n1
- pEC50 [5]: 5.27

Compound: O=C1[C@@H]2Cc3c([nH]c4ccccc34)C(c3ccc([N+](=O)[O-])cc3)N2C(=O)[C@@H]2CCCN12 (stereo partly drawn)
- MIC [1]: 6.25 µg/mL (≈ 15 µM)
- MIC [2]: 12.5 µg/mL (≈ 30 µM)
- MIC [3]: 12.5 µg/mL (≈ 30 µM)
- MIC [4]: 12.5 µg/mL (≈ 30 µM)

Compound: COc1cc(C2c3[nH]c4ccccc4c3C[C@H]3C(=O)N4CCC[C@H]4C(=O)N23)ccc1O (stereo partly drawn)
- MIC [1]: 12.5 µg/mL (≈ 29.9 µM)
- MIC [2]: 6.25 µg/mL (≈ 15 µM)
- MIC [3]: 12.5 µg/mL (≈ 29.9 µM)
- MIC [4]: 6.25 µg/mL (≈ 15 µM)

Compound: CCCCCCCCCCc1nccc2c1[nH]c1ccccc12
- MIC [6]: 1.6 µg/mL (≈ 5.19 µM)

Compound: CC(C)[C@@H]1COC(c2nccc3c2[nH]c2ccccc23)=N1
- pEC50 [5]: 4.81

Compound: Cc1nccc2c1[nH]c1cc(OC(=O)C(C)(C)C)ccc12
- Activity [7]: 66.7%
- Activity [8]: 78.9%

Compound: Cc1ccccc1[N+]1=Cc2c(c3ccccc3n2C)CC1
- pEC50 [9]: 5.63

Compound: CC[C@@H](C)[C@@H]1COC(c2nccc3c2[nH]c2ccccc23)=N1
- pEC50 [5]: 4.75

Compound: CCCCCCCCCc1nccc2c1[nH]c1ccccc12
- MIC [6]: 3.2 µg/mL (≈ 10.9 µM)

Compound: CN(C)c1ccc(C2NCCc3c2[nH]c2ccccc32)cc1 (stereo not drawn)
- inhibition at 100 µg/mL [10]: 20.8%
- inhibition at 100 µg/mL [11]: 21.6%

Compound: Cc1ccc2c(c1)c1c(n2C)C=[N+](c2ccccc2C)CC1
- pEC50 [9]: 5.46

Compound: CCn1c2ccccc2c2ccnc(-c3nc4ccccc4[nH]3)c21
- inhibition at 50 µg/mL [12]: 92%

Compound: CC(C)(C)[C@@H]1COC(c2nccc3c2[nH]c2ccccc23)=N1
- pEC50 [5]: 4.89

Compound: CC(C)CCc1nccc2c1[nH]c1ccccc12
- MIC [6]: 50 µg/mL (≈ 210 µM)

Compound: COc1ccc(C2c3[nH]c4ccccc4c3C[C@H]3C(=O)N4CCC[C@H]4C(=O)N23)cc1 (stereo partly drawn)
- MIC [1]: 6.25 µg/mL (≈ 15.6 µM)
- MIC [2]: 12.5 µg/mL (≈ 31.1 µM)
- MIC [3]: 12.5 µg/mL (≈ 31.1 µM)
- MIC [4]: 12.5 µg/mL (≈ 31.1 µM)

Compound: NC(=O)c1cc2c([nH]c3ccccc32)c(-c2ccccn2)n1
- pEC50 [13]: 5.55

Compound: Cc1nccc2c3ccccc3n(Cc3cn(-c4ccccc4)nn3)c12
- Activity [14]: 85.04%

Compound: COC(=O)c1cc2c([nH]c3ccccc32)c(C(=O)OC)n1
- pEC50 [13]: 5.94

Compound: Cc1ccc([N+]2=Cc3c(c4ccccc4n3C)CC2)cc1
- pEC50 [9]: 5.61

Compound: CC[C@@H]1COC(c2nccc3c2[nH]c2ccccc23)=N1
- pEC50 [5]: 4.65

Compound: Cc1nccc2c3ccccc3n(Cc3cn(-c4cc(F)c(F)c(F)c4)nn3)c12
- Activity [14]: 85.98%

Compound: CCCCCn1c2ccccc2c2cc(C)ncc21
- EC50 [15]: 13.8 µg/mL (≈ 54.7 µM)

Compound: CCCCCCCCc1nccc2c1[nH]c1ccccc12
- MIC [6]: 3.2 µg/mL (≈ 11.4 µM)

Compound: CO/C=C(/C(=O)OC)c1ccccc1Oc1cc(Oc2ccccc2C#N)ncn1 [AZOXYSTROBIN]
- inhibition at 50 µg/mL [12]: 88.5%
- Activity [14]: 88.07%

Compound: O=C(Nc1ccccc1-c1ccc(Cl)cc1)c1cccnc1Cl [BOSCALID]
- pEC50 [5]: 6.05

Compound: COC(=O)Nc1nc2ccccc2[nH]1 [CARBENDAZIM]
- Activity [14]: 89.77%
- pEC50 [16]: 5.36

Compound: N#Cc1c(Cl)c(Cl)c(Cl)c(C#N)c1Cl [CHLOROTHALONIL]
- Activity [7]: 73.3%
- Activity [8]: 91.3%

Compound: COC1=CC(=O)C[C@@H](C)[C@]12Oc1c(Cl)c(OC)cc(OC)c1C2=O [GRISEOFULVIN]
- inhibition at 100 µg/mL [10]: 20.3%
- inhibition at 100 µg/mL [11]: 20.4%

Compound: COc1ccc2c3c([nH]c2c1)C(C)=NCC3 [HARMALINE]
- MIC [17]: 666 µg/mL (≈ 3110 µM)

Compound: CC1=NCCc2c1[nH]c1cc(O)ccc21 [HARMALOL]
- MIC [17]: 750 µg/mL (≈ 3750 µM)

Compound: Cc1nc(C(=O)O)cc2c1[nH]c1ccccc12 [HARMAN-3-CARBOXYLIC ACID]
- Activity [7]: 33.3%
- Activity [8]: 21.1%

Compound: Cc1nccc2c1[nH]c1ccccc12 [HARMAN]
- MIC [6]: 200 µg/mL (≈ 1100 µM)
- Activity [7]: 68.4%
- Activity [8]: 36.4%

Compound: COc1ccc2c(c1)[nH]c1c(C)nccc12 [HARMINE]
- MIC [17]: 500 µg/mL (≈ 2360 µM)
- Activity [7]: 15.7%
- Activity [8]: 22.7%

Compound: CC(=O)N1CCN(c2ccc(OCC3COC(Cn4ccnc4)(c4ccc(Cl)cc4Cl)O3)cc2)CC1 (stereo not drawn) [KETOCONAZOLE]
- MIC [18]: 2.5 µg/mL (≈ 4.7 µM)
- MIC [1]: 12.5 µg/mL (≈ 23.5 µM)
- MIC [2]: 12.5 µg/mL (≈ 23.5 µM)
- MIC [3]: 12.5 µg/mL (≈ 23.5 µM)
- MIC [4]: 12.5 µg/mL (≈ 23.5 µM)

Compound: COCC(=O)N(c1c(C)cccc1C)C(C)C(=O)OC (stereo not drawn) [METALAXYL]
- inhibition at 100 µg/mL [19]: 93.4%

Compound: Clc1ccc(COC(Cn2ccnc2)c2ccc(Cl)cc2Cl)c(Cl)c1 (stereo not drawn) [MICONAZOLE]
- MIC [20]: 7.8 µg/mL (≈ 18.7 µM)

Compound: c1ccc2c(c1)[nH]c1cnccc12 [NORHARMANE]
- MIC [6]: 100 µg/mL (≈ 595 µM)
- Activity [21]: 11.9%

Compound: c1ccc2[nH]c(-c3cscn3)nc2c1 [THIABENDAZOLE]
- pEC50 [16]: 4.90
- inhibition (INH) ([16]; time 72 hrs): 89.3%

Compound: OCC1=C[C@H](N[C@H]2C[C@H](CO)[C@@H](O[C@@H]3O[C@H](CO)[C@@H](O)[C@H](O)[C@H]3O)[C@H](O)[C@H]2O)[C@H](O)[C@@H](O)[C@@H]1O [VALIDAMYCIN]
- EC50 [22]: 198 µg/mL (≈ 397 µM)
